Results taken from paper PMC10743905, “Design, Synthesis, and In Vitro and In Vivo Bioactivity Studies of Hydrazide–Hydrazones of 2,4-Dihydroxybenzoic Acid” (International Journal of Molecular Sciences, 2023).
Converted amounts (≈) assume the structure as drawn. “Also recorded” adds a separate entry of the source. Read-outs that look alike come from different tables or passages of the source.

Experiments:
[1] = tested on: Bacillus subtilis ATCC 6633; test: Broth microdilution MIC/MBC; assay type: cell-based; details: for MBC: ATCC6633
Method in brief: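 Strains were subcultured on nutrient or Sabouraud agar, suspended to 0.5 McFarland in saline, then added to wells holding two-fold compound dilutions. Final concentrations ranged 1000 to 0.488 µg/ml in Mueller-Hinton broth or RPMI 1640 with MOPS.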

Danio rerio embryos = test: Fish Embryo Acute Toxicity (FET) test, OECD No. 236; details: for toxicity for zebrafish embryos and larvae (in words): FET test, based on LC50; for heart rate vs negative (E3) and solvent (1% DMSO) controls: zebrafish larvae, 96 h; for percentage of non-lethal morphological abnormalities: zebrafish larvae 96 hpf
Method: Wild-type AB strain zebrafish (Danio rerio) were housed in the Experimental Medicine Centre of Medical University of Lublin (Lublin, Poland), where all the experimental procedures on embryos and larvae were carried out. The animals were kept on a recirculating water supply at 26 ± 1 °C and a 10/14 dark–light cycle, and they were fed with artemia and commercial feed. Danio rerio embryos were obtained from females between 4 and 15 months of age. […] In order to avoid genetic bias in the study, eggs were randomly collected from at least three breeding groups, rinsed, and placed in Petri dishes in the cultured medium, which for Danio rerio is E3 solution. […] In accordance with the legislation of the European Union and Poland, the experiments performed on the earliest life-stages of Danio rerio until 120 h post-fertilization (120 hpf), not defined as protected, are not subject to regulations for animal experimentation.
They address the testing of chemicals using the Fish Embryo Acute Toxicity (FET) test with the species Danio rerio.
Immediately after fertilization, eggs were placed in sterile 24-well plates and exposed for 96 h to at least five concentrations of the test chemical, ranging from 1 to 500 µM and prepared ex tempore on each day of exposure, according to the principle of one egg per well and one concentration per plate. In each plate, 20 wells were filled with the solutions of the tested substance, and 4 wells of the last column were a negative internal control with E3 medium. Each well was filled with 2 mL of solution. Positive control plates were also prepared according to this scheme with 4 mg/L of 3,4-dichloroaniline (Sigma-Aldrich, Poznań, Poland) and a negative control with E3, and a negative solvent control with 1% DMSO, which was used as a solvent for the tested substances. At four time points, microscopic observations were made every 24 h. As indicators of mortality (so-called terminal observations; when at least one of these occurs, embryonic death is declared), the following were recorded: the coagulation of embryos, a lack of somite formation, a lack of detachment of the tail from the yolk sac and a lack of a heartbeat, which was observed from the 48th hour of the study. To confirm the absence of a heartbeat, a microscopic observation was conducted at 80× magnification for one minute. Then, the solutions of the tested chemicals, to maintain their constant composition throughout the test, were replaced with fresh ones, and the plates were incubated for another 24 h in an incubator at 26 ± 1 °C. […] In addition, a quantitative and qualitative summary of the morphological and physiological abnormalities that occurred in the tested Danio rerio embryos and larvae was also made. These included yolk sac edema, pericardial edema, spinal flexure, head deformities, tail deformities, developmental delay defined as a lack of hatching success for 96 hpf larvae, and also bradycardia.
Regression analysis was performed with Excel, and the above-mentioned values were obtained from the linear type of regression analysis. […] The results obtained from the heart rate study of 96 hpf zebrafish larvae were subjected to statistical analysis using one-way analysis of variance (ANOVA) and a post hoc Bonferroni test. The significance level was taken as p < 0.05.

[2] = zebrafish, 500 µM (150.62 mg/L)

| SMILES | MBC/MIC [1] | MBC [1] [µg/mL] | MIC ([1]; ATCC6633, read-out: MIC) [µg/mL] | toxicity for zebrafish embryos and larvae (in words) (Danio rerio embryos) | also measured |
| --- | --- | --- | --- | --- | --- |
| O=C(N/N=C/c1ccc([N+](=O)[O-])cc1)c1ccc(O)cc1O [Compound 21, 2,4-dihydroxy-N-[(4-nitrophenyl)methylidene]benzohydrazide] | > 2 | > 1000 | 500 (≈ 1660 µM) | moderate toxicity | percentage of development delay (Danio rerio embryos; [2]): 10%; percentage of tail malformation (Danio rerio embryos; [2]): 55% |
| O=C(N/N=C/c1ccccc1F)c1ccc(O)cc1O [Compound 24, N-[(2-fluorophenyl)methylidene]-2,4-dihydroxybenzohydrazide] | > 2 | > 1000 | 500 (≈ 1820 µM) | nontoxic | heart rate vs negative (E3) and solvent (1% DMSO) controls (Danio rerio embryos; 50 µM (13.71 mg/L)): no changes; heart rate vs negative (E3) and solvent (1% DMSO) controls (Danio rerio embryos; 100 µM (27.42 mg/L), p < 0.01): decrease in heartbeat (bradycardia); heart rate vs negative (E3) and solvent (1% DMSO) controls (Danio rerio embryos; 500 µM (137.12 mg/L), p < 0.001): the reduction was very statistically significant; percentage of pericardial edema (Danio rerio embryos; zebrafish, 100 µM (27.42 mg/L)): 65%; percentage of pericardial edema (Danio rerio embryos; zebrafish, 500 µM (137.12 mg/L)): 85% |
| CCCc1ccc(/C=N/NC(=O)c2ccc(O)cc2O)cc1 [Compound 13, 2,4-dihydroxy-N-[(4-propylphenyl)methylidene]benzohydrazide] | > 1 | > 1000 | 1000 (≈ 3350 µM) | – | – |
| O=C(N/N=C/c1ccccc1Cl)c1ccc(O)cc1O [Compound 22, N-[(2-chlorophenyl)methylidene]-2,4-dihydroxybenzohydrazide] | – | – | > 1000 | quite toxic | – |
| O=C(N/N=C/c1ccccc1Br)c1ccc(O)cc1O [Compound 23, N-[(2-bromophenyl)methylidene]-2,4-dihydroxybenzohydrazide] | – | – | > 1000 | quite toxic | percentage of yolk sac edema (Danio rerio embryos; zebrafish embryos and larvae, 100 µM (35.52 mg/L)): 80% |
| O=C(N/N=C/c1cccc([N+](=O)[O-])c1)c1ccc(O)cc1O [Compound 20, 2,4-dihydroxy-N-[(3-nitrophenyl)methylidene]benzohydrazide] | > 4 | > 1000 | 250 (≈ 830 µM) | nontoxic | percentage of non-lethal morphological abnormalities (Danio rerio embryos): ≤ 25% |
| O=C(N/N=C/c1cc(I)cc(I)c1O)c1ccc(O)cc1O [Compound 18, 2,4-dihydroxy-N-[(2-hydroxy-3,5-diiodophenyl)methylidene]benzohydrazide] | 2 | 3.91 (≈ 7.46 µM) | 1.95 (≈ 3.72 µM) | – | MIC [1]: 1.95 µg/mL (≈ 3.72 µM) |
| O=C(N/N=C/c1ccccc1[N+](=O)[O-])c1ccc(O)cc1O [Compound 19, 2,4-dihydroxy-N-[(2-nitrophenyl)methylidene]benzohydrazide] | > 4 | > 1000 | 250 (≈ 830 µM) | nontoxic; also recorded: negligible toxicity | percentage of non-lethal morphological abnormalities (Danio rerio embryos): ≤ 25% |
